Data reported in patent publication US11925611B2, “Use of ZT-1A and analogs thereof to prevent and/or treat neurodegenerative and neurocognitive disorders” (United States Government as Represented by the Department …, priority 2021, dated 2024).
Read-outs that look alike come from different tables or passages of the source.

How the values were obtained:
BCAS mice = experiment: Immunostaining of brains of BCAS mice (MBP, APC, NG2, caspase 3/Olig2, GFAP, tNKCC1); format: in vivo, C57BL/6J mice
Description: Clinically, most patients with intracranial atherosclerotic stenosis suffer from permanent stenosis without occlusion. Therefore, to mimic clinical atherosclerotic stenosis with permanent carotid artery (CCA) hypoperfusion, a modified BCAS model was adapted by ligating the CCA guided with a 30 gauge needle (0.31 mm diameter) in the right CCA and a 33 gauge needle (0.21 mm diameter) in the left CCA with a 4-0 silk suture. […] Next, changes of total NKCC1 (tNKCC1) protein expression were surveyed in different brain regions at 2 and 4 wks post-surgery by immunofluorescence staining (IF). […] Therefore, in the rest of the study, the investigation was focused on its association to white matter GFAP^+ astrogliosis and lesion of CC and external capsul (EC) tracks. […] However, by 2 wks post-BCAS surgery, tNKCC1 immunofluorescence intensity in the CC tracks was increased by ˜3 folds (p<0.05), and further elevated to ˜6 folds by 4 wks (p<0.05, arrowhead). Data are mean±SEM, n=4, *p<0.05, **p<0.01. […] The upregulation of tNKCC1 and GFAP protein expression in the CC is correlated, with a Pearson's correlation coefficient of r=0.9 (p<0.001). […] In contrast, no elevated tNKCC1 protein was detected either in Iba1^+ microglia/macrophages or in Olig2+ oligodendrocytes (OL) at 4 wks post-BCAS surgery (FIG. 1D). Without wishing to be bound by theory, these findings indicate that upregulation of NKCC1 expression and activity in reactive astrocytes may play a critical role in white matter inflammation, OL death, and demyelination after BCAS. Next, whether administration of SPAK inhibitor ZT-1a reduces WML and improves cognitive functions was examined. Starting at 14 days after BCAS surgery in mice (male), either vehicle DMSO (Veh, 2 ml/kg) or ZT-1a (5 mg/kg, every 72 h, i.p) was administered every 3 days, until they were sacrificed at day 35 post-BCAS (FIG. 3A). […] Motor functions are similar in all groups and average swimming speeds were not different in the Sham-, Veh- and ZT-1a-treated mice. Data are mean±SEM, n=6 (Sham and ZT-1a) or 5 (Veh), *p<0.01 vs. sham, *p<0.05 vs. Veh. After completion of the neurological function tests in the Veh-control and ZT-1a-treated BCAS cohort mice (as shown in FIG. 3A and FIG. 3B), ex-vivo brains were harvested for MRI DTI (diffusion tensor imaging) analysis of WML at 4 wks post-BCAS detected by DTI. The fractional anisotropy (FA), radial diffusivity (RD), and mean diffusivity (MD) of the CC and EC tracks were analyzed. Representative images of the DEC maps in FIG. 4A show severe loss of axonal fibers (arrowheads) in the CC and left EC of the Veh-control brains. […] These observations are consistent with changes of FA, RD, and MD values (FIG. 4B). […] Then MBP expression levels were measured in these brains by immunostaining. […] Taken together, these findings illustrated that post-BCAS administration of SPAK inhibitor ZT-1a reduces BCAS-induced white matter demyelination. […] To test this, immunostaining of the same cohort of brains (of FIG. 4A-D) was conducted to analyze oligodendrocyte precursor cell (OPC) counts (NG2^+), differentiated mature OLs (APC^+), and apoptotic OLs (caspase 3^+Olig2^+) in the Sham, Veh-, and ZT-1a-treated BCAS mice. […] Referring to FIG. 5A and FIG. 5B, representative double immunofluorescence images of APC (mature oligodendrocyte marker)/NG2 (oligodendrocyte precursor cell marker) in CC (FIG. 5A) and EC (FIG. 5B) of Sham, Veh-, and ZT-1a-treated brains at 4-wk after BCAS surgery. Nuclei were counterstained with DAPI. Quantitative analyses of APC^+/DAPI^+ cells and NG2^+/DAPI^+ cells is shown. Data are mean±SEM, n=4, *p<0.05, […]. Referring to FIG. 5C, representative double immunofluorescence images of Caspase 3^+/Olig2^+ cells in CC of Sham, Veh-, and ZT-1a-treated brains. Data are mean±SEM, n=4, *p<0.05. Without wishing to be bound by theory, it is speculated that ZT-1a treatment preserves white matter integrity via reducing reactive astrocyte-mediated inflammation in white matter tracks. […]

KCC3 = experiment: Cellular inhibition of KCC3 phosphorylation (pThr991, pThr1048); format: cell-based; conditions: n = 3, — = no inhibition
Description: 8. Cellular Activity Profile of Inhibitors with the Salicyclic Amide
A list of the compounds evaluated for their ability to inhibit phosphorylation of SPAK/NKCC1/KCC3 activity is illustrated in Table 1 below.

[1] = 4 wks post-BCAS, vs Veh-controls

For `Cc1cc(C(C#N)c2ccc(Cl)cc2)c(Cl)cc1NC(=O)c1cc(Cl)ccc1O` (stereo not drawn) [1a (ZT-1a)], the “decrease in GFAP expression in CC” value (BCAS mice; 4 weeks after BCAS, n=4) was about 50%, the “decrease in tNKCC1 expression in CC” value (BCAS mice; 4 weeks after BCAS, n=4) was about 60% and the “APC+ cell counts (mature OLs) in the CC and EC tracts” value (BCAS mice; [1]) was “significantly higher”. For the same molecule, the “NG2+ cell counts (OPC) in the CC and EC tracts” value (BCAS mice; [1]) was “significantly higher”, the “caspase 3+ OLs cell counts in CC” value (BCAS mice; [1]) was “less” and the “MBP protein expression in the CC and EC tracks” value (BCAS mice; 4 wks post-BCAS, vs Veh-treated BCAS brains, p<0.05) was “less MBP loss”. It also gave an IC50 (KCC3; Hypotonic conditions, read-out: KCC3 pThr1048 (μM) hypo) of 3 µM, an IC50 (KCC3; Isotonic conditions, read-out: KCC3 pThr991 (μM) Iso) of 3 µM and an IC50 (KCC3; Isotonic conditions, read-out: KCC3 pThr1048 (μM) Iso) of 1 µM.
